Assay results taken from ChEMBL document CHEMBL1687767, “New antiseptic peptides to protect against endotoxin-mediated shock” (Antimicrob Agents Chemother, 2010).
In brackets after ≈: the same amount, converted by molar mass. Activity calls are given as the source filed them. The rule behind the calls is not given here. Residues, ends and D or L forms follow the SMILES beside them.

How the values were obtained:
[1] = Toxicity in human RBC assessed as hemolysis upto 25 ug/ml; assay type: cell-based; details: erythrocyte
[2] = test system: Bordetella bronchiseptica; assay: Antimicrobial activity against Bordetella bronchiseptica CUN11844-99 by broth microdilution method; assay type: functional
Pseudomonas aeruginosa [3] = assay: Antimicrobial activity against Pseudomonas aeruginosa CUN 4158-02 by broth microdilution method; assay type: functional
Pseudomonas aeruginosa [4] = assay: Antimicrobial activity against Pseudomonas aeruginosa ATCC 27853 by broth microdilution method; assay type: functional
Escherichia coli = assay: Antimicrobial activity against Escherichia coli ATCC 25922 by broth microdilution method; assay type: functional
Staphylococcus aureus [5] = assay: Antimicrobial activity against Staphylococcus aureus ATCC 25923 by broth microdilution method; assay type: functional
Staphylococcus aureus [6] = assay: Antimicrobial activity against methicillin-resistant Staphylococcus aureus ATCC 43300 by broth microdilution method; assay type: functional
Staphylococcus aureus [7] = assay: Antimicrobial activity against methicillin-resistant Staphylococcus aureus CUN 3792-99 by broth microdilution method; assay type: functional
[8] = test system: Stenotrophomonas maltophilia; assay: Antimicrobial activity against […] Stenotrophomonas maltophilia CUN 3998-00 by broth microdilution method; assay type: functional
Acinetobacter baumannii = assay: Antimicrobial activity against […] Acinetobacter baumannii ATCC 19606 by broth microdilution method; assay type: functional
Homo sapiens = species on record: Homo sapiens; assay: Antiinflammatory activity in human MNC assessed as inhibition of LPS-induced TNFalpha production at compound: LPS ratio of 100:1 weight percent by ELISA; assay type: functional

SMILES | Activity [1] | MIC [2] | MIC (Pseudomonas aeruginosa [3]) | MIC (Pseudomonas aeruginosa [4]) | MIC (Escherichia coli) | MIC (Staphylococcus aureus [5]) | MIC (Staphylococcus aureus [6]) | MIC (Staphylococcus aureus [7]) | MIC [8] | MIC (Acinetobacter baumannii) | inhibition (Homo sapiens)
N=C(N)NCCC[C@H](NC(=O)[C@H](Cc1ccccc1)NC(=O)[C@H](CCCCN)NC(=O)[C@H](Cc1c[nH]c2ccccc12)NC(=O)[C@H](CS)NC(=O)[C@H](Cc1ccccc1)NC(=O)[C@H](CCCNC(=N)N)NC(=O)[C@H](Cc1ccc(O)cc1)NC(=O)[C@H](CCCCN)NC(=O)CNC(=O)[C@H](Cc1ccccc1)NC(=O)[C@H](CCCNC(=N)N)NC(=O)[C@H](Cc1c[nH]c2ccccc12)NC(=O)[C@H](CCCCN)NC(=O)CNC(=O)[C@H](Cc1ccccc1)NC(=O)[C@@H](N)CCCCN)C(=O)NCC(=O)N[C@@H](Cc1c[nH]c2ccccc12)C(=O)N[C@@H](CCCCN)C(=O)O (H-KFGKWRFGKYRFCWKFRGWK-OH) | Non-toxic |  |  |  |  |  |  |  |  |  | 
N=C(N)NCCC[C@H](NC(=O)[C@H](Cc1ccc(O)cc1)NC(=O)[C@H](CCCCN)NC(=O)[C@H](CCCCN)NC(=O)CN)C(=O)N[C@@H](CCCNC(=N)N)C(=O)N[C@@H](Cc1ccccc1)C(=O)N[C@@H](Cc1c[nH]c2ccccc12)C(=O)N[C@@H](CCCCN)C(=O)N[C@@H](Cc1ccccc1)C(=O)N[C@@H](CCCCN)C(=O)NCC(=O)N[C@@H](CCCCN)C(=O)N[C@@H](Cc1c[nH]c2ccccc12)C(=O)N[C@@H](Cc1ccccc1)C(=O)N[C@@H](Cc1c[nH]c2ccccc12)C(=O)N[C@@H](Cc1ccccc1)C(=O)N[C@@H](Cc1c[nH]c2ccccc12)C(=O)NCC(=O)O (H-GKKYRRFWKFKGKWFWFWG-OH) |  | 8 µg/mL (≈ 3.03 µM) | 32 µg/mL (≈ 12.1 µM) | 8 µg/mL (≈ 3.03 µM) | 1020 µg/mL (≈ 388 µM) | 1020 µg/mL (≈ 388 µM) | 16 µg/mL (≈ 6.06 µM) | 16 µg/mL (≈ 6.06 µM) | 64 µg/mL (≈ 24.3 µM) | 16 µg/mL (≈ 6.06 µM) | 
CC(C)C[C@H](NC(=O)[C@H](Cc1c[nH]c2ccccc12)NC(=O)[C@H](CC(C)C)NC(=O)[C@H](CCCCN)NC(=O)[C@H](CCC(N)=O)NC(=O)[C@H](CCCCN)NC(=O)[C@H](CS)NC(=O)[C@H](CCCCN)NC(=O)[C@H](CC(C)C)NC(=O)[C@H](CCCCN)NC(=O)[C@H](Cc1ccccc1)NC(=O)[C@H](CCCNC(=N)N)NC(=O)[C@H](CCCNC(=N)N)NC(=O)[C@H](Cc1ccccc1)NC(=O)[C@H](CCCCN)NC(=O)[C@H](CCCCN)NC(=O)[C@H](CS)NC(=O)CN)C(=O)N[C@@H](Cc1c[nH]c2ccccc12)C(=O)N[C@@H](CS)C(=O)NCC(=O)O (H-GCKKFRRFKLKCKQKLWLWCG-OH) |  | 16 µg/mL (≈ 6.02 µM) | 256 µg/mL (≈ 96.3 µM) | 256 µg/mL (≈ 96.3 µM) | 1020 µg/mL (≈ 385 µM) | 1020 µg/mL (≈ 385 µM) | 64 µg/mL (≈ 24.1 µM) | 32 µg/mL (≈ 12 µM) | 1020 µg/mL (≈ 385 µM) | 64 µg/mL (≈ 24.1 µM) | 
CC(C)C[C@H](NC(=O)[C@H](CCCNC(=N)N)NC(=O)[C@H](CCCNC(=N)N)NC(=O)[C@H](Cc1ccccc1)NC(=O)[C@H](CCCCN)NC(=O)[C@H](CCCCN)NC(=O)[C@H](CS)NC(=O)CN)C(=O)N[C@@H](CCCCN)C(=O)N[C@@H](Cc1c[nH]c2ccccc12)C(=O)N[C@@H](CCCCN)C(=O)N[C@@H](Cc1ccc(O)cc1)C(=O)N[C@@H](CCCCN)C(=O)NCC(=O)N[C@@H](CCCCN)C(=O)N[C@@H](Cc1ccccc1)C(=O)N[C@@H](Cc1c[nH]c2ccccc12)C(=O)N[C@@H](Cc1ccccc1)C(=O)N[C@@H](Cc1c[nH]c2ccccc12)C(=O)N[C@@H](CS)C(=O)NCC(=O)O (H-GCKKFRRLKWKYKGKFWFWCG-OH) |  | 4 µg/mL (≈ 1.45 µM) | 256 µg/mL (≈ 93 µM) | 256 µg/mL (≈ 93 µM) | 64 µg/mL (≈ 23.2 µM) | 32 µg/mL (≈ 11.6 µM) | 64 µg/mL (≈ 23.2 µM) | 1020 µg/mL (≈ 372 µM) | 512 µg/mL (≈ 186 µM) | 64 µg/mL (≈ 23.2 µM) | Active
N=C(N)NCCC[C@H](NC(=O)CNC(=O)[C@H](CCCNC(=N)N)NC(=O)[C@H](Cc1ccccc1)NC(=O)[C@H](CCCNC(=N)N)NC(=O)[C@H](Cc1c[nH]c2ccccc12)NC(=O)[C@H](CCCCN)NC(=O)[C@H](Cc1ccccc1)NC(=O)[C@H](CCCCN)NC(=O)[C@H](CCCCN)NC(=O)[C@H](Cc1ccc(O)cc1)NC(=O)[C@H](CCCNC(=N)N)NC(=O)[C@H](CCCNC(=N)N)NC(=O)CN)C(=O)N[C@@H](Cc1ccccc1)C(=O)N[C@@H](Cc1c[nH]c2ccccc12)C(=O)N[C@@H](Cc1ccccc1)C(=O)N[C@@H](Cc1c[nH]c2ccccc12)C(=O)NCC(=O)O (H-GRRYKKFKWRFRGRFWFWG-OH) |  | 16 µg/mL (≈ 6 µM) |  |  | 64 µg/mL (≈ 24 µM) | 32 µg/mL (≈ 12 µM) |  |  |  |  | 
CC[C@H](C)[C@H](NC(=O)CN)C(=O)NCC(=O)N[C@@H](C)C(=O)N[C@H](C(=O)N[C@@H](CC(C)C)C(=O)N[C@@H](CCCCN)C(=O)N[C@H](C(=O)N[C@@H](CC(C)C)C(=O)N[C@H](C(=O)N[C@H](C(=O)NCC(=O)N[C@@H](CC(C)C)C(=O)N1CCC[C@H]1C(=O)N[C@@H](C)C(=O)N[C@@H](CC(C)C)C(=O)N[C@H](C(=O)N[C@@H](CO)C(=O)N[C@@H](Cc1c[nH]c2ccccc12)C(=O)N[C@H](C(=O)N[C@@H](CCCCN)C(=O)N[C@@H](CCCNC(=N)N)C(=O)N[C@@H](CCCCN)C(=O)N[C@@H](CCCNC(=N)N)C(=O)N[C@@H](CCC(N)=O)C(=O)N[C@@H](CCC(N)=O)C(N)=O)[C@@H](C)CC)[C@@H](C)CC)[C@@H](C)O)[C@@H](C)O)C(C)C)C(C)C [MELITTIN] | Non-toxic |  |  |  |  |  |  |  |  |  | 
N=C(N)NCCC[C@H](NC(=O)[C@H](Cc1ccc(O)cc1)NC(=O)[C@H](CCCCN)NC(=O)[C@H](CCCCN)NC(=O)[C@H](CS)NC(=O)CN)C(=O)N[C@@H](CCCNC(=N)N)C(=O)N[C@@H](Cc1ccccc1)C(=O)N[C@@H](CCCNC(=N)N)C(=O)N[C@@H](Cc1c[nH]c2ccccc12)C(=O)N[C@@H](CCCCN)C(=O)N[C@@H](Cc1ccccc1)C(=O)N[C@@H](CCCCN)C(=O)NCC(=O)N[C@@H](CCCCN)C(=O)N[C@@H](Cc1ccccc1)C(=O)N[C@@H](Cc1c[nH]c2ccccc12)C(=O)N[C@@H](Cc1ccccc1)C(=O)N[C@@H](Cc1c[nH]c2ccccc12)C(=O)O (H-GCKKYRRFRWKFKGKFWFW-OH) | Non-toxic | 64 µg/mL (≈ 24.1 µM) | 128 µg/mL (≈ 48.2 µM) | 64 µg/mL (≈ 24.1 µM) | 64 µg/mL (≈ 24.1 µM) | 64 µg/mL (≈ 24.1 µM) | 32 µg/mL (≈ 12.1 µM) | 64 µg/mL (≈ 24.1 µM) | 128 µg/mL (≈ 48.2 µM) | 64 µg/mL (≈ 24.1 µM) | Active
N=C(N)NCCC[C@H](NC(=O)CNC(=O)[C@H](CCCNC(=N)N)NC(=O)[C@H](Cc1ccc(O)cc1)NC(=O)[C@H](CCCNC(=N)N)NC(=O)[C@H](Cc1c[nH]c2ccccc12)NC(=O)[C@H](CCCCN)NC(=O)[C@H](CCCCN)NC(=O)[C@H](Cc1ccccc1)NC(=O)[C@H](CCCCN)NC(=O)[C@H](CCCCN)NC(=O)[C@H](Cc1ccccc1)NC(=O)[C@H](CCCNC(=N)N)NC(=O)[C@H](CCCNC(=N)N)NC(=O)[C@H](CS)NC(=O)CN)C(=O)N[C@@H](Cc1ccccc1)C(=O)N[C@@H](Cc1c[nH]c2ccccc12)C(=O)N[C@@H](Cc1ccccc1)C(=O)N[C@@H](Cc1c[nH]c2ccccc12)C(=O)N[C@@H](CS)C(=O)N[C@@H](Cc1ccccc1)C(=O)NCC(=O)O (H-GCRRFKKFKKWRYRGRFWFWCFG-OH) |  | 32 µg/mL (≈ 10.2 µM) | 128 µg/mL (≈ 40.7 µM) | 128 µg/mL (≈ 40.7 µM) | 64 µg/mL (≈ 20.3 µM) | 64 µg/mL (≈ 20.3 µM) | 32 µg/mL (≈ 10.2 µM) | 64 µg/mL (≈ 20.3 µM) | 64 µg/mL (≈ 20.3 µM) | 64 µg/mL (≈ 20.3 µM) | 
N=C(N)NCCC[C@H](NC(=O)[C@H](Cc1ccc(O)cc1)NC(=O)[C@H](CCCNC(=N)N)NC(=O)[C@H](Cc1c[nH]c2ccccc12)NC(=O)[C@H](CCCNC(=N)N)NC(=O)[C@H](Cc1ccccc1)NC(=O)[C@H](CCCCN)NC(=O)[C@H](CCCCN)NC(=O)[C@H](Cc1c[nH]c2ccccc12)NC(=O)[C@H](CCCNC(=N)N)NC(=O)[C@H](CCCNC(=N)N)NC(=O)[C@H](CS)NC(=O)CN)C(=O)NCC(=O)N[C@@H](CCCCN)C(=O)N[C@@H](Cc1ccccc1)C(=O)N[C@@H](Cc1c[nH]c2ccccc12)C(=O)N[C@@H](Cc1ccccc1)C(=O)N[C@@H](Cc1c[nH]c2ccccc12)C(=O)N[C@@H](CS)C(=O)NCC(=O)O (H-GCRRWKKFRWRYRGKFWFWCG-OH) |  | 32 µg/mL (≈ 11 µM) | 128 µg/mL (≈ 44 µM) | 128 µg/mL (≈ 44 µM) | 128 µg/mL (≈ 44 µM) | 64 µg/mL (≈ 22 µM) | 32 µg/mL (≈ 11 µM) | 64 µg/mL (≈ 22 µM) | 64 µg/mL (≈ 22 µM) | 64 µg/mL (≈ 22 µM) | 
N=C(N)NCCC[C@H](NC(=O)[C@H](Cc1ccc(O)cc1)NC(=O)[C@H](CCCCN)NC(=O)[C@H](CCCCN)NC(=O)CN)C(=O)N[C@@H](CCCNC(=N)N)C(=O)N[C@@H](Cc1ccccc1)C(=O)N[C@@H](CCCNC(=N)N)C(=O)N[C@@H](Cc1c[nH]c2ccccc12)C(=O)N[C@@H](CCCCN)C(=O)N[C@@H](Cc1ccccc1)C(=O)N[C@@H](CCCCN)C(=O)NCC(=O)N[C@@H](CCCCN)C(=O)N[C@@H](Cc1c[nH]c2ccccc12)C(=O)N[C@@H](Cc1ccccc1)C(=O)N[C@@H](Cc1c[nH]c2ccccc12)C(=O)N[C@@H](Cc1ccccc1)C(=O)NCC(=O)O (H-GKKYRRFRWKFKGKWFWFG-OH) |  | 4 µg/mL (≈ 1.53 µM) | 16 µg/mL (≈ 6.13 µM) | 16 µg/mL (≈ 6.13 µM) | 16 µg/mL (≈ 6.13 µM) | 16 µg/mL (≈ 6.13 µM) | 16 µg/mL (≈ 6.13 µM) | 16 µg/mL (≈ 6.13 µM) | 32 µg/mL (≈ 12.3 µM) | 16 µg/mL (≈ 6.13 µM) | 
